Results: PMC9230575, “^68Ga-Labeled [Leu^13ψThz^14]Bombesin(7–14) Derivatives: Promising GRPR-Targeting PET Tracers with Low Pancreas Uptake” (Molecules, 2022)
Blank lines part the entries; values can stand above or below the compound they belong to. *1 amine or outer side, *2 acyl side, *3 side chain or, on linkers, in order; H or OH if unused. Where a SMILES comes first, the peptide text is derived from it. [ ]: non-standard residue; d: D form. The star is where a group is joined. DOTA = O=C(O)CN1CCN(CC(=O)O)CCN(CC(=O)*)CCN(CC(=O)O)CC1; Leuψ(CH2N)ThzNH2 = CC(C)C[C@@H](CN1CSC[C@H]1C(N)=O)N*; d2Nal = N[C@H](Cc1ccc2ccccc2c1)C(=O)O; Cya = N[C@@H](CS(=O)(=O)O)C(=O)O; X1 = O=C(CN1CCC(N[*:1])CC1)[*:2]

What was measured:
GRPR = biological target: T1, GRPR (Homo sapiens, UniProt P30550); assay: Fluorometric intracellular calcium release assay using PC-3 cells; type: cell-based; conditions: 50 nM ligand
T1 construct: endogenous in cells; host or cells: PC-3 prostate cancer cells
T1 sequence (P30550 whole entry): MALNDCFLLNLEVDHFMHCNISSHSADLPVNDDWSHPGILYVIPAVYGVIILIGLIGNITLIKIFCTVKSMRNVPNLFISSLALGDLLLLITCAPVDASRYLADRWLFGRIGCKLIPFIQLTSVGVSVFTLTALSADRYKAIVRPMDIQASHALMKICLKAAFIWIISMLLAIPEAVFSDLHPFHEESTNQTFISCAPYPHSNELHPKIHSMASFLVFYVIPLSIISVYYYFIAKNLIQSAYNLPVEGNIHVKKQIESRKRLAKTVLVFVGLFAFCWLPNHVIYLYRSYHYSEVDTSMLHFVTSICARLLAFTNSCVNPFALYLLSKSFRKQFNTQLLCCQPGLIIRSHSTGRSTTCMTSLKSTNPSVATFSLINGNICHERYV
Protocol: Following previously published procedures, 5 × 10^4 PC-3 cells were seeded in 96-well clear-bottom black plates 24 h prior to the assay. The growth medium was removed and replaced with a loading buffer containing a calcium-sensitive dye (FLIPR Calcium 6 assay kit, Molecular Device, San Jose, CA, USA). After incubation at 37 °C for 30 min, the plates were placed in a FlexStation 3 microplate reader (Molecular Devices). […] Agonistic/antagonistic properties were determined using the relative fluorescent unit (RFU = max–min).

physchem = conditions: 1-octanol/phosphate buffer, pH 7.4
Protocol: Briefly, aliquots (2 μL) of the ^68Ga-labeled peptides were added to a vial containing 3 mL of 1-octanol and 3 mL of 0.1 M phosphate buffer (pH 7.4). The mixture was vortexed for 1 min and then centrifuged at 5000 rpm for 10 min. Samples of the 1-octanol (1 mL) and buffer (1 mL) layers were taken and counted in a gamma counter. LogD7.4 was calculated using the following equation: LogD7.4 = log10[(counts in 1-octanol phase)/(counts in buffer phase)].

PC-3 tumor xenografts [1] = assay: PET/CT imaging of mice bearing PC-3 tumor xenografts; type: in vivo; conditions: 1 h post-injection
Protocol: The PET/CT imaging experiments were carried out using a Siemens (Knoxville, TN, USA) Inveon micro-PET/CT scanner. […] At 50 min post-injection, a 10 min CT scan was conducted: first for localization and attenuation corrections after segmentation for reconstructing the PET images, followed by a 10 min static PET imaging acquisition.

[2] = for Fraction remaining intact in plasma: NRG mice, 15 min post-injection, n = 3; for Intact tracer in urine: mouse urine samples collected at 15 min post-injection
Protocol: Imaging, biodistribution, and in vivo stability studies were performed using male NOD.Cg-Rag1^tm1Mom Il2rg^tm1Wjl/SzJ (NRG) mice (from in-house breeding colonies) following previously published procedures. […] When the tumor grew to 5–8 mm in diameter over 3–4 weeks, the mice were used for PET/CT imaging and biodistribution studies.
At 15 min post-injection, the mice were sedated and euthanized, and urine and blood were collected. The plasma was extracted from whole blood by the addition of CH3CN (500 μL), vortexing, centrifugation, and the separation of the supernatants. The plasma and urine samples were analyzed via radio-HPLC by using the conditions for quality control of these ^68Ga-labeled radioligands (Table S3).

PC-3 tumor xenografts [3] = assay: Ex vivo biodistribution in PC-3 tumor-bearing mice; conditions: 1 h post-injection, n = 4
Protocol: For biodistribution studies, the mice (n = 4) were injected with the radiotracer (~2–4 MBq, 0.03–0.07 nmol) as described above. […] At 1 h post-injection, the mice were euthanized by CO2 inhalation. Blood was withdrawn by cardiac puncture, and organs/tissues of interest were collected, weighed and counted using a Perkin Elmer (Waltham, MA, USA) Wizard2 2480 automatic gamma counter.

- Ca2+ efflux (relative fluorescence units, max-min) (GRPR): 334 ± 39.0 RFU
Compound: Nc1ncnc2c1ncn2[C@@H]1O[C@H](COP(=O)(O)OP(=O)(O)OP(=O)(O)O)[C@@H](O)[C@H]1O [ATP, adenosine triphosphate]

Compound: CC(C)C[C@@H](CN1CSC[C@H]1C(N)=O)NC(=O)[C@H](Cc1c[nH]cn1)NC(=O)CNC(=O)[C@@H](NC(=O)[C@H](C)NC(=O)[C@H](Cc1c[nH]c2ccccc12)NC(=O)[C@H](CCC(N)=O)NC(=O)[C@H]1Cc2c([nH]c3ccccc23)CN1C(=O)CN1CCC(NC(=O)CN2CCN(CC(=O)O)CCN(CC(=O)O)CCN(CC(=O)O)CC2)CC1)C(C)C [Ga-TacsBOMB4]
- Ca2+ efflux (relative fluorescence units, max-min) (GRPR): 9.30 ± 3.74 RFU

Compound: CC(C)C[C@@H](CN1CSC[C@H]1C(N)=O)NC(=O)[C@H](Cc1c[nH]cn1)NC(=O)CNC(=O)[C@@H](NC(=O)[C@H](C)NC(=O)[C@H](Cc1c[nH]c2ccccc12)NC(=O)[C@H](CCC(N)=O)NC(=O)[C@@H](Cc1ccc2ccccc2c1)NC(=O)CN1CCC(NC(=O)[C@H](CS(=O)(=O)O)NC(=O)CN2CCN(CC(=O)O)CCN(CC(=O)O)CCN(CC(=O)O)CC2)CC1)C(C)C [Ga-TacsBOMB6] ({DOTA}-[Cya][X1][d2Nal]QWAVGH-{Leuψ(CH2N)ThzNH2})
- Ca2+ efflux (relative fluorescence units, max-min) (GRPR): 23.0 ± 0.06 RFU

Compound: CC(C)C[C@H](NC(=O)C[C@H](O)[C@H](CC(C)C)NC(=O)[C@H](Cc1c[nH]cn1)NC(=O)CNC(=O)[C@@H](NC(=O)[C@H](C)NC(=O)[C@H](Cc1c[nH]c2ccccc12)NC(=O)[C@H](CCC(N)=O)NC(=O)[C@@H](Cc1ccccc1)NC(=O)CN1CCC(NC(=O)CN2CCN(CC(=O)O)CCN(CC(=O)O)CCN(CC(=O)O)CC2)CC1)C(C)C)C(N)=O [[^68Ga]Ga-RM2, metal not drawn, reference compound]
- logD (physchem): -2.76 ± 0.03
- Excretion pathway in PET images (PC-3 tumor xenografts [1]): primarily excreted through the renal pathway
- Fraction remaining intact in plasma [2]: 71.9 ± 10.4%
- Intact tracer in urine [2]: no intact
- Spleen uptake (PC-3 tumor xenografts [3]): 0.44 ± 0.26 %ID/g

Compound: CC(C)C[C@@H](CN1CSC[C@H]1C(N)=O)NC(=O)[C@H](Cc1c[nH]cn1)NC(=O)CNC(=O)[C@@H](NC(=O)[C@H](C)NC(=O)[C@H](Cc1c[nH]c2ccccc12)NC(=O)[C@H](CCC(N)=O)NC(=O)[C@@H](Cc1ccccc1)NC(=O)CN1CCC(NC(=O)CN2CCN(CC(=O)O)CCN(CC(=O)O)CCN(CC(=O)O)CC2)CC1)C(C)C [[^68Ga]Ga-TacsBOMB2, metal not drawn]
- logD (physchem): -2.39 ± 0.13
- Excretion pathway in PET images (PC-3 tumor xenografts [1]): primarily excreted through the renal pathway
- Fraction remaining intact in plasma [2]: 83.3 ± 1.45%
- Intact tracer in urine [2]: no intact

Compound: CC(C)C[C@@H](CN1CSC[C@H]1C(N)=O)NC(=O)[C@H](Cc1c[nH]cn1)NC(=O)CNC(=O)[C@@H](NC(=O)[C@H](C)NC(=O)[C@H](Cc1c[nH]c2ccccc12)NC(=O)[C@H](CCC(N)=O)NC(=O)[C@@H](Cc1ccc2ccccc2c1)NC(=O)CN1CCC(NC(=O)CN2CCN(CC(=O)O)CCN(CC(=O)O)CCN(CC(=O)O)CC2)CC1)C(C)C [[^68Ga]Ga-TacsBOMB3, metal not drawn]
- logD (physchem): -1.75 ± 0.04
- Excretion pathway in PET images (PC-3 tumor xenografts [1]): primarily excreted through the renal pathway

Compound: CC(C)C[C@@H](CN1CSC[C@H]1C(N)=O)NC(=O)[C@H](Cc1c[nH]cn1)NC(=O)CNC(=O)[C@@H](NC(=O)[C@H](C)NC(=O)[C@H](Cc1c[nH]c2ccccc12)NC(=O)[C@H](CCC(N)=O)NC(=O)[C@@H](Cc1ccc2ccccc2c1)NC(=O)CN1CCC(NC(=O)[C@H](CS(=O)(=O)O)NC(=O)CN2CCN(CC(=O)O)CCN(CC(=O)O)CCN(CC(=O)O)CC2)CC1)C(C)C [[^68Ga]Ga-TacsBOMB6, metal not drawn] ({DOTA}-[Cya][X1][d2Nal]QWAVGH-{Leuψ(CH2N)ThzNH2})
- logD (physchem): -2.55 ± 0.16
- Excretion pathway in PET images (PC-3 tumor xenografts [1]): primarily excreted through the renal pathway

- Ca2+ efflux (relative fluorescence units, max-min) (GRPR): 25.3 ± 1.92 RFU
Compound: [D-Phe^6,Leu-NHEt^13,des-Met^14]Bombesin(6–14)

- Ca2+ efflux (relative fluorescence units, max-min) (GRPR): 754 ± 38.3 RFU
Compound: bombesin
